Measurements as given in publication PMC7024211, “Antifouling Napyradiomycins from Marine-Derived Actinomycetes Streptomyces aculeolatus” (Marine Drugs, 2020).
Converted amounts (≈) assume the structure as drawn.

Key:
[1] = tested on: M. galloprovincialis plantigrade larvae; assay: Mussel plantigrade larvae settlement, 15 h acute exposure assay; type: in vivo; conditions: 95% LCL, UCL in brackets
Description: (§1) Mussel (M. galloprovincialis) adhesive larvae (plantigrades) were used to assess in vivo the antifouling activity of napyradiomycins (1–12) towards macrofouling. Juvenile mussel aggregates were collected at the intertidal rocky shore during low spring tides, at Memória beach, Matosinhos, Portugal (41°13′59″ N; 8°43′28″ W). At the laboratory, immediately before the bioassays, mussel plantigrade larvae were screened and isolated from the juvenile aggregates using a binocular microscope (Olympus SZX2-ILLT, Hamburg, Germany) and washed with filtered seawater to remove organic debris. Only competent plantigrade larvae (those showing foot exploratory behavior) were selected and used in the exposure bioassays following previously validated procedures. Plantigrades were exposed in 24-well polystyrene plates for 15 h in the darkness at 18 °C. DMSO was used as solvent for crude extracts, fractions and pure compounds stock and working solutions. Working solutions were prepared by successive dilutions of stock solutions in DMSO and then diluted in filtered seawater to obtain the test solutions. DMSO concentration in test solutions was always 0.1%. Four well replicates were used per condition with five larvae per well. Two negative controls, one with ultra-pure water and the other with DMSO 0.1% were included in all bioassays, as well as a positive control with 5 μM CuSO4 (a potent antifouling agent). Anti-settlement bioactivity was determined by the presence/absence of fixed byssal threads produced by each individual larvae for all the conditions tested. […] Chi-square Pearsons goodness-of-fit test was applied to data in order to determine EC50. Significance was considered at p < 0.01 for all analyses, and 95% lower and upper confidence limits [95% LCL; UCL] were presented. Therapeutic ratio (LC50/EC50) was used to evaluate the effectiveness vs. toxicity of compounds [19, 21].

[2] = as above; type: in vivo; conditions: Mytilus galloprovincialis (mussel, plantigrade larvae), in vivo, no mortality at highest tested concentration 12 µg/mL
Description: as §1

For `CC(C)=CCCC(C)=CCC12OC(C)(C)C(Cl)CC1(Cl)C(=O)c1c(O)cc(O)cc1C2=O` (stereo not drawn) [Napyradiomycin 1, napyradiomycin A1], the “EC50 [Conf. limits] larval settlement” value [1] was 0.655 [0.300; 0.906] µg/mL, the EC50 ([1]; Mytilus galloprovincialis, 15 h, read-out: EC50 [Conf. limits] larval settlement) was 0.66 µg/mL (≈ 1.37 µM) and the LC50 at 15 h [2] was greater than 12 µg/mL.
